# Assays:
# human GST-PIKFYVE = target: T1, human GST-PIKFYVE (Homo sapiens, UniProt Q9Y2I7); assay: ADP-Glo kinase assay, enzyme inhibition activity against human PIKFYVE (Carna biosciences); assay type: biochemical; settings: inhibitory activity at final compound concentration 10 nM; 1 hour at room temperature
# T1 construct: GST; purchased Carna biosciences 11-118
# Procedure: The enzyme inhibition activity values for the compounds according to Examples against human PIKFYVE were calculated using the ADP-Glo™ kinase assay service of Carna biosciences, Inc. The enzyme activity evaluation method provided by Carna biosciences Inc., is shown below.
# Enzyme inhibition activity was evaluated by reacting the compounds according to Examples with human GST-PIKFYVE (11-118, Carna biosciences), which was purified using glutathione Sepharose chromatography. The reaction buffer used was composed of 50 mmol/L MOPS, 1 mmol/L DTT, and pH 7.2, and all reactions of the test distilled water were performed in the buffer.
# Compounds were prepared as solutions in 100% DMSO as 100× stocks and adjusted to have a final sample concentration of 10 nM.
# The substrate-enzyme reaction for PIKFYVE was performed by mixing 5 μL human GST-PIKFYVE, 5 μL compounds according to Examples, 5 μL enzyme substrate, and 5 μL purified ATP and reacting for 1 hour at room temperature. After the substrate-enzyme reaction, 20 μL ADP-Glo™ Reagent was added and reacted at room temperature for 40 minutes, then 40 μL Kinase Detection Reagent was added and reacted at room temperature for 40 minutes.
# After completion of the reaction, the degree of enzyme activity inhibition was measured by luminescence. The fluorescence of the enzyme activity in the solvent control group […] was set to 100%, and the fluorescence of the enzyme activity in the solvent control group without compound treatment was set to 0%. The inhibitory activity of each compound according to Examples was calculated based on these values.
# PIKFYVE = target: T2, PIKFYVE (Homo sapiens, UniProt Q9Y2I7); assay: NanoBRET TE Intracellular Kinase Assay, interaction of PIKFYVE and compounds in HEK293 cells; assay type: cell-based; settings: IC50 class from BRET; HEK293 cells expressing PIKFYVE-NanoLuc; 2 hours incubation
# T2 construct: host or cells: HEK293 (ATCC, CRL-1573)
# Procedure: To predict the efficacy of the compounds according to Example on PIKFYVE in humans, the interaction between PIKFYVE and the compounds was tested using the HEK293 cell line derived from human embryonic kidney (ATCC, CRL-1573) via NanoBRETT TE Intracellular Kinase Assay Service of Carna biosciences Inc., (Japan). The evaluation method provided by Carna biosciences Inc., was shown below and the NanoBRET™ TE Intracellular Kinase Assay, K-8 Kit (Promega, CS1810C88) was used.
# The HEK-293 cells cultured in Opti-MEM™ I Reduced Serum Medium (Thermo Fisher, 11058-021) were transfected with Transfection Carrier DNA (Promega, E4881), PIKFYVE-NanoLuc Fusion Vector (Promega, CS1810C225), and FuGENE HD Transfection Reagent (Promega, E2311) to produce cells expressing genes combining PIKFYVE and NanoLuc, followed by culturing 100 μl (2×10^5 cells/ml) each in 96-well plates (Corning, 3917).
# 10× compounds according to Examples or Comparative Examples prepared by concentration in 1× NanoBRET™ tracer reagent and DMSO were reacted in 96-well plates and incubated for 2 hours in a 37° C., 5% CO2 incubator.
# After the reaction was completed, 3× Complete NanoBRET™ Nano-Glo Substrate solution was added to each well, and the reaction was allowed to run for 2-3 minutes at room temperature before BRET was measured using a GloMax Discover Multimode Microplate Reader (Promega).
# T1 sequence (Q9Y2I7 whole entry): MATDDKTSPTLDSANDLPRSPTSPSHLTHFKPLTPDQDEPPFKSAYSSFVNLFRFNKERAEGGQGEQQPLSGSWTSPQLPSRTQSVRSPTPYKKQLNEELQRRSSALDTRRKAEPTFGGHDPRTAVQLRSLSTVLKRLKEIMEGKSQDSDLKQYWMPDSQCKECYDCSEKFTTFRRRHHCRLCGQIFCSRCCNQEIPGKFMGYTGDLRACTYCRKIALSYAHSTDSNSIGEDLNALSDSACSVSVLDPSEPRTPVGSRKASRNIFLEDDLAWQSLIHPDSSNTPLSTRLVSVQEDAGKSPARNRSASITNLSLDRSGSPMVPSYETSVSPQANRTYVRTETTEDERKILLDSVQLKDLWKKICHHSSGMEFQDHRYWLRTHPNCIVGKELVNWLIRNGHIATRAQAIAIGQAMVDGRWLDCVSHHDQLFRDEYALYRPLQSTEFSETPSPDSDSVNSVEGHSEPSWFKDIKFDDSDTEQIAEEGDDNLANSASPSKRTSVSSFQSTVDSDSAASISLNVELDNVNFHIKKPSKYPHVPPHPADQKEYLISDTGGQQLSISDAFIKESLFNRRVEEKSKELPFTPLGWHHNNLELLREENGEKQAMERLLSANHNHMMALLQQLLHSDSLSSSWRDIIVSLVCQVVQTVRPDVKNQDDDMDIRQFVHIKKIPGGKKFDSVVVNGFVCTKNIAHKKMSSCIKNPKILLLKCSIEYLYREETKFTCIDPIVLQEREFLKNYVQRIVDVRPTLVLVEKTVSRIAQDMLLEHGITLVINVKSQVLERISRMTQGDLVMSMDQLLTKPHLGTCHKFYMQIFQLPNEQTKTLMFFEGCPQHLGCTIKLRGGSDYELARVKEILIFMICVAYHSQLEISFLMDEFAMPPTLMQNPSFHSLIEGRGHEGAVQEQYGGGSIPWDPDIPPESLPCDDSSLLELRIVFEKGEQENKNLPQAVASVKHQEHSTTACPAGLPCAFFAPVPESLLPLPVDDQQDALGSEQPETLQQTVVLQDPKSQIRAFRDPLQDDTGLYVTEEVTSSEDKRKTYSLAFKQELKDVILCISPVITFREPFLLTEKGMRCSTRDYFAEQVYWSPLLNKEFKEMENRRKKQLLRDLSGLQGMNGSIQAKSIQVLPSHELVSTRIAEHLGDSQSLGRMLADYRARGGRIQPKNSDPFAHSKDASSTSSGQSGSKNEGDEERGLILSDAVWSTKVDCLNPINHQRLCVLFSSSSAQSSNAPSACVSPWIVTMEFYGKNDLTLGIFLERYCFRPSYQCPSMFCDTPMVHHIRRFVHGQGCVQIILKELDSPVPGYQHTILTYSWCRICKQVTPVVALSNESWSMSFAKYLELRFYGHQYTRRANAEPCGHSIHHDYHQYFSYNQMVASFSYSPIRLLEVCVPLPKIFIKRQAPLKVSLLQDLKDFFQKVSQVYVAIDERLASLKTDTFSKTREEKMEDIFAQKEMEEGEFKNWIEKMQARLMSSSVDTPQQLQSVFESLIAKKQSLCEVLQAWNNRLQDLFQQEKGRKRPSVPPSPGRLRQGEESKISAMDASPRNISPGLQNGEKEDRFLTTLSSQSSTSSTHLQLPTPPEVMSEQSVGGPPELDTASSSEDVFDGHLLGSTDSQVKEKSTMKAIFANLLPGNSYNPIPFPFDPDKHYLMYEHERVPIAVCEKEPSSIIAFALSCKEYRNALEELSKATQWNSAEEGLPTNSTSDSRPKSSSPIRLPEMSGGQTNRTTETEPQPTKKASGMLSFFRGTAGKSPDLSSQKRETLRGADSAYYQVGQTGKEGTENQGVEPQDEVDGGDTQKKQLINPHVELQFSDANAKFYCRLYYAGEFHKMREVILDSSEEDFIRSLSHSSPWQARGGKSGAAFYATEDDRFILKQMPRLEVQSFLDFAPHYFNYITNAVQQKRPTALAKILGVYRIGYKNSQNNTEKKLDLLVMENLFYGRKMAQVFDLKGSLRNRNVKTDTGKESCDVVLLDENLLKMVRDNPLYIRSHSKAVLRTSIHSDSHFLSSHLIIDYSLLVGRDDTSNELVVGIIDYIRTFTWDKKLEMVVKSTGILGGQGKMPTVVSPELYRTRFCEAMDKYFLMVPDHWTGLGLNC
# T2 sequence (Q9Y2I7 whole entry): as above
"ADP-Glo kinase assay (%, 10 nM) (human GST-PIKFYVE)",IC50 (PIKFYVE),SMILES
55.65%,–,"COc1cccc(Nc2nc(N3CCOCC3)nc3c2ncn3/N=C/c2cccc(C)c2)c1 [Example 184, (E)-N-(3-methoxyphenyl)-9-((3-methylbenzylidene)amino)-2-morpholino-9H-purin-6-amine]"
52.43%,–,"Cc1cccc(/C=N/n2cnc3c(Nc4ccc(Cl)cc4)nc(N4CCOCC4)nc32)c1 [Example 186, (E)-N-(4-chlorophenyl)-9-((3-methylbenzylidene)amino)-2-morpholino-9H-purin-6-amine]"
52.07%,–,"COc1ccccc1Nc1nc(N2CCOCC2)nc2c1ncn2/N=C/c1cccc(C)c1 [Example 187, (E)-N-(2-methoxyphenyl)-9-((3-methylbenzylidene)amino)-2-morpholino-9H-purin-6-amine]"
65.93%,–,"Cc1cccc(/C=N/n2cnc3c(Nc4cc(C)n(C)n4)nc(N4CCOCC4)nc32)c1 [Example 188, (E)-N-(1,5-dimethyl-1H-pyrazol-3-yl)-9-((3-methylbenzylidene)amino)-2-morpholino-9H-purin-6-amine]"
78.59%,–,"Cc1cccc(Nc2nc(N3CCOCC3)nc3c2ncn3/N=C/c2cccnc2)c1 [Example 190, (E)-2-morpholino-9-((pyridin-3-ylmethylene)amino)-N-(m-tolyl)-9H-purin-6-amine]"
61.25%,–,"Cc1cccc(/C=N/n2cnc3c(Nc4cncc(C)c4)nc(N4CCOCC4)nc32)c1 [Example 192, (E)-9-((3-methylbenzylidene)amino)-N-(5-methylpyridin-3-yl)-2-morpholino-9H-purin-6-amine]"
64.35%,–,"Cc1cccc(/C=N/n2cnc3c(Nc4ccnc(Cl)c4)nc(N4CCOCC4)nc32)c1 [Example 193, (E)-N-(2-chloropyridin-4-yl)-9-((3-methylbenzylidene)amino)-2-morpholino-9H-purin-6-amine]"
61.38%,–,"Cc1cccc(/C=N/n2cnc3c(Nc4cccnc4C)nc(N4CCOCC4)nc32)c1 [Example 194, (E)-9-((3-methylbenzylidene)amino)-N-(2-methylpyridin-3-yl)-2-morpholino-9H-purin-6-amine]"
75.59%,–,"Cc1cccc(/C=N/n2cnc3c(Nc4cc(C)no4)nc(N4CCOCC4)nc32)c1 [Example 198, (E)-3-methyl-N-(9-((3-methylbenzylidene)amino)-2-morpholino-9H-purin-6-yl)isoxazol-5-amine]"
53.14%,–,"Cc1cccc(CNn2cnc3c(Nc4ccncc4)nc(N4CCOCC4)nc32)c1 [Example 203, N^9-(3-methylbenzyl)-2-morpholino-N^6-(pyridin-4-yl)-9H-purin-6,9-diamine]"
53.74%,–,"COc1ccc(Nc2nc(N3CCOCC3)nc3c2nc(C)n3/N=C/c2cccc(C)c2)cc1 [Example 205, (E)-N-(4-methoxyphenyl)-8-methyl-9-((3-methylbenzylidene)amino)-2-morpholino-9H-purin-6-amine]"
53.87%,–,"Cc1cccc(/C=N/n2c(C)nc3c(Nc4ccccc4)nc(N4CCOCC4)nc32)c1 [Example 206, (E)-8-methyl-9-((3-methylbenzylidene)amino)-2-morpholino-N-phenyl-9H-purin-6-amine]"
75.57%,–,"Cc1cccc(/C=N/n2c(C)nc3c(Nc4ccncc4)nc(N4CCOCC4)nc32)c1 [Example 207, (E)-8-methyl-9-((3-methylbenzylidene)amino)-2-morpholino-N-(pyridin-4-yl)-9H-purin-6-amine]"
71.38%,–,"Cc1cccc(/C=N/n2c(C)nc3c(OCCc4ccccn4)nc(N4CCOCC4)nc32)c1 [Example 208, (E)-N-8-methyl-2-morpholino-(6-(2-pyridin-2-yl)ethoxy)-9H-purin-9-yl-1-(m-tolyl)methanimine]"
63.00%,–,"Cc1cccc(/C=N/Nc2nc(N3CCOCC3)nc3nc(-c4cccnc4)ccc23)c1 [Example 216, (E)-4-(4-(2-(3-methylbenzylidene)hydrazinyl)-7-(pyridin-3-yl)pyrido[2,3-d]pyrimidin-2-yl)morpholine]"

# The next lines start with the molecule.
SMILES,"ADP-Glo kinase assay (%, 10 nM) (human GST-PIKFYVE)",IC50 (PIKFYVE)
"Cc1cccc(/C=N/Nc2nc(N3CCOCC3)nc3c2ncn3CC(C)C)c1 [Example 17, (E)-4-(9-isobutyl-6-(2-(3-methylbenzylidene)hydrazinyl)-9H-purin-2-yl)morpholine]",69.26%,10 to 20 nM
"Cc1cccc(/C=N/Nc2nc(N3CCOCC3)nc3c2ncn3CCc2ccccc2)c1 [Example 18, (E)-4-(6-(2-(3-methylbenzylidene)hydrazinyl)-9-phenethyl-9H-purin-2-yl)morpholine]",89.87%,≤ 10 nM
"Cc1cccc(/C=N/Nc2nc(N3CCOCC3)nc3c2nc(C)n3-c2ccccn2)c1 [Example 164, (E)-4-(8-methyl-6-(2-(3-methylbenzylidene)hydrazinyl)-9-(pyridin-2-yl)-9H-purin-2-yl)morpholine]",63.89%,–
"Cc1ccccc1/C=N/n1cnc2c(Nc3ccncc3)nc(N3CCOCC3)nc21 [Example 167, (E)-9-((2-methylbenzylidene)amino)-2-morpholino-N-(pyridin-4-yl)-9H-purin-6-amine]",68.47%,–
"Cc1ccc(/C=N/n2cnc3c(Nc4ccncc4)nc(N4CCOCC4)nc32)cc1 [Example 168, (E)-9-((4-methylbenzylidene)amino)-2-morpholino-N-(pyridin-4-yl)-9H-purin-6-amine]",87.26%,–
"C(=N\n1cnc2c(Nc3ccncc3)nc(N3CCOCC3)nc21)/c1ccccc1 [Example 169, (E)-9-(benzylideneamino)-2-morpholino-N-(pyridin-4-yl)-9H-purin-6-amine]",89.56%,–
"FC(F)(F)c1cccc(/C=N/n2cnc3c(Nc4ccncc4)nc(N4CCOCC4)nc32)c1 [Example 170, (E)-2-morpholino-N-(pyridin-4-yl)-9-((3-(trifluoromethyl)benzylidene)amino)-9H-purin-6-amine]",79.60%,–
"Clc1cccc(/C=N/n2cnc3c(Nc4ccncc4)nc(N4CCOCC4)nc32)c1 [Example 171, (E)-9-((3-chlorobenzylidene)amino)-2-morpholino-N-(pyridin-4-yl)-9H-purin-6-amine]",86.73%,–
"COc1cccc(/C=N/n2cnc3c(Nc4ccncc4)nc(N4CCOCC4)nc32)c1 [Example 172, (E)-9-((3-methoxybenzylidene)amino)-2-morpholino-N-(pyridin-4-yl)-9H-purin-6-amine]",90.96%,–
"COc1ccc(/C=N/n2cnc3c(Nc4ccncc4)nc(N4CCOCC4)nc32)cc1 [Example 173, (E)-9-((4-methoxybenzylidene)amino)-2-morpholino-N-(pyridin-4-yl)-9H-purin-6-amine]",73.94%,–
"Cc1cccc(/C=N/n2cnc3c(-n4ccnc4)nc(N4CCOCC4)nc32)c1 [Example 176, (E)-N-(6-(1H-imidazol-1-yl)-2-morpholino-9H-purin-9-yl)-1-(m-tolyl)methanimine]",56.91%,–
"COc1ccc(Nc2nc(N3CCOCC3)nc3c2ncn3/N=C/c2cccc(C)c2)cc1 [Example 178, (E)-N-(4-methoxyphenyl)-9-((3-methylbenzylidene)amino)-2-morpholino-9H-purin-6-amine]",55.44%,–
"Cc1cccc(/C=N/n2cnc3c(Nc4ccccc4)nc(N4CCOCC4)nc32)c1 [Example 180, (E)-9-((3-methylbenzylidene)amino)-2-morpholino-N-phenyl-9H-purin-6-amine]",63.03%,–
"Cc1ccc(Nc2nc(N3CCOCC3)nc3c2ncn3/N=C/c2cccc(C)c2)cc1 [Example 181, (E)-9-((3-methylbenzylidene)amino)-2-morpholino-N-(p-tolyl)-9H-purin-6-amine]",53.92%,–
